Measurements taken from patent US20250171457A1, “NITROGEN-CONTAINING HETEROCYCLIC COMPOUND HAVING NRF2 ACTIVATION EFFECT” (CHUGAI SEIYAKU KABUSHIKI KAISHA, priority 2022, published 2025).

Test system: Nrf2 transcriptional activity (pARE-Luc reporter) in HepG2 cells
Experiment: In vitro Nrf2 transcriptional activity measurement by ARE-dependent reporter assay in HepG2 cell
Type: cell-based, human
Settings: Homo sapiens; HepG2 cells transfected with pARE-Luc, 4 hours at 37° C.; luciferase activity of Example 1-54 or Example 17-23 at 3.75 μM defined as 100%
How it was run: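 HepG2 cells transfected with pGL4.37 (pARE-Luc), replated onto compound and incubated 4 h at 37° C; luciferase read by Bright-Glo luminescence. Response normalized to 100% set by a reference compound at 3.75 μM; EC50 from dose-response curve.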

| Compound | EC50 [nM] |
| --- | --- |
| O=C(O)c1cc(F)c(-c2cccc3c2OCN(C(=O)c2c(Cl)cc(N4CC(O)(C(F)(F)F)C4)cc2Cl)C3)cc1N1C2CCC1COC2 [Compound 1-12, 4-[3-[2,6-Dichloro-4-[3-hydroxy-3-(trifluoromethyl)azetidin-1-yl]benzoyl]-2,4-dihydro-1,3-benzoxazin-8-yl]-5-fluoro-2-(3-oxa-8-azabicyclo[3.2.1]octan-8-yl)benzoic acid] | 16 |
| C[C@@H]1CN(C)CCN1c1ccc(C(=O)N2COc3c(cccc3-c3cc(N4C5CCC4COC5)c(C(=O)O)cc3F)C2)c(Cl)c1 [Compound 19-8, 4-[3-[2-Chloro-4-[(2R)-2,4-dimethylpiperazin-1-yl]benzoyl]-2,4-dihydro-1,3-benzoxazin-8-yl]-5-fluoro-2-(3-oxa-8-azabicyclo[3.2.1]octan-8-yl)benzoic acid] | 3.9 |
| O=C(O)c1ccc(-c2cccc3c2OCN(C(=O)c2c(Cl)cc(N4CC5(COC5)C4)cc2Cl)C3)cc1N1CCOCC1 [Compound 4-21, 4-[3-[2,6-Dichloro-4-(2-oxa-6-azaspiro[3.3]heptan-6-yl)benzoyl]-2,4-dihydro-1,3-benzoxazin-8-yl]-2-morpholin-4-ylbenzoic acid] | 7.4 |
| COc1ncc(-c2cc(Cl)c(C(=O)N3COc4c(cccc4-c4cc(N5C6CCC5COC6)c(C(=O)O)cc4F)C3)c(Cl)c2)c2nn(C)nc12 [Compound 3-26, 4-[3-[2,6-Dichloro-4-(4-methoxy-2-methyltriazolo[4,5-c]pyridin-7-yl)benzoyl]-2,4-dihydro-1,3-benzoxazin-8-yl]-5-fluoro-2-(3-oxa-8-azabicyclo[3.2.1]octan-8-yl)benzoic acid] | 9.8 |
| Cn1nnc2c(C(=O)N3COc4c(cccc4-c4cc(N5C6CCC5COC6)c(C(=O)O)cc4F)C3)c(Cl)cc(N3CC4(C3)OCC(C)(C)CO4)c21 [Compound 19-14, 4-[3-[5-Chloro-7-(7,7-dimethyl-5,9-dioxa-2-azaspiro[3.5]nonan-2-yl)-1-methylbenzotriazole-4-carbonyl]-2,4-dihydro-1,3-benzoxazin-8-yl]-5-fluoro-2-(3-oxa-8-azabicyclo[3.2.1]octan-8-yl)benzoic acid] | 4.1 |
| C[C@@H]1CN(C)[C@@H](C)CN1c1cc(Cl)c(C(=O)N2COc3c(cccc3-c3cc(N4C5CCC4COC5)c(C(=O)O)cc3F)C2)c(Cl)c1 [Compound 9-11, 4-[3-[2,6-Dichloro-4-[(2R,5S)-2,4,5-trimethylpiperazin-1-yl]benzoyl]-2,4-dihydro-1,3-benzoxazin-8-yl]-5-fluoro-2-(3-oxa-8-azabicyclo[3.2.1]octan-8-yl)benzoic acid] | 19 |
| CN1CCN(c2cc(Cl)c(C(=O)N3COc4c(cccc4-c4cc(N5CCOCC5)c(C(=O)O)cc4F)C3)c(Cl)c2)CC1 [Compound 1-56] | 1.3 |
| COCCN1CC2(CCN(c3cc(Cl)c(C(=O)N4COc5c(cccc5-c5cc(N6C7CCC6COC7)c(C(=O)O)cc5F)C4)c(Cl)c3)C2)C1 [Compound 8-9, 4-[3-[2,6-Dichloro-4-[2-(2-methoxyethyl)-2,7-diazaspiro[3.4]octan-7-yl]benzoyl]-2,4-dihydro-1,3-benzoxazin-8-yl]-5-fluoro-2-(3-oxa-8-azabicyclo[3.2.1]octan-8-yl)benzoic acid] | 9.5 |
| COC1COC2(CN(c3cc(Cl)c(C(=O)N4COc5c(cccc5-c5cc(N6C7CCC6COC7)c(C(=O)O)cc5F)C4)c(Cl)c3)C2)OC1 [Compound 5-3, 4-[3-[2,6-Dichloro-4-(7-methoxy-5,9-dioxa-2-azaspiro[3.5]nonan-2-yl)benzoyl]-2,4-dihydro-1,3-benzoxazin-8-yl]-5-fluoro-2-(3-oxa-8-azabicyclo[3.2.1]octan-8-yl)benzoic acid] | 9.5 |
| COCCN1CCC(Oc2cc(Cl)c(C(=O)N3COc4c(cccc4-c4cc(N5CCOCC5)c(C(=O)O)cc4F)C3)c(Cl)c2)CC1 [Compound 4-47, 4-[3-[2,6-Dichloro-4-[1-(2-methoxyethyl)piperidin-4-yl]oxybenzoyl]-2,4-dihydro-1,3-benzoxazin-8-yl]-5-fluoro-2-morpholin-4-ylbenzoic acid] | 3.3 |
| C[C@@H]1CNCCN1c1cc(Cl)c(C(=O)N2COc3c(cccc3-c3cc(N4C5CCC4COC5)c(C(=O)O)cc3F)C2)c(Cl)c1 [Compound 9-25, 4-[3-[2,6-Dichloro-4-[(2R)-2-methylpiperazin-1-yl]benzoyl]-2,4-dihydro-1,3-benzoxazin-8-yl]-5-fluoro-2-(3-oxa-8-azabicyclo[3.2.1]octan-8-yl)benzoic acid] | 8.8 |
| CC1(C)COC2(CN(c3cc(F)c(C(=O)N4COc5c(cccc5-c5cc(N6C7CCC6COC7)c(C(=O)O)cc5F)C4)c(Cl)c3)C2)OC1 [Compound 19-10, 4-[3-[2-Chloro-4-(7,7-dimethyl-5,9-dioxa-2-azaspiro[3.5]nonan-2-yl)-6-fluorobenzoyl]-2,4-dihydro-1,3-benzoxazin-8-yl]-5-fluoro-2-(3-oxa-8-azabicyclo[3.2.1]octan-8-yl)benzoic acid] | 2.5 |
| Cn1cc(Oc2cc(Cl)c(C(=O)N3COc4c(cccc4-c4cc(N5CCOCC5)c(C(=O)O)cc4F)C3)c(Cl)c2)cn1 [Compound 4-46, 4-[3-[2,6-Dichloro-4-(1-methylpyrazol-4-yl)oxybenzoyl]-2,4-dihydro-1,3-benzoxazin-8-yl]-5-fluoro-2-morpholin-4-ylbenzoic acid] | 14 |
| COC1CN(c2cc(Cl)c(C(=O)N3COc4c(cccc4-c4cc(N5C6CCC5COC6)c(C(=O)O)cc4F)C3)c(Cl)c2)C1(C)C (stereo not drawn) [Compound 1-9, 4-[3-[2,6-Dichloro-4-(3-methoxy-2,2-dimethylazetidin-1-yl)benzoyl]-2,4-dihydro-1,3-benzoxazin-8-yl]-5-fluoro-2-(3-oxa-8-azabicyclo[3.2.1]octan-8-yl)benzoic acid] | 4.6 |
| O=C(O)c1cc(F)c(-c2cccc3c2OCN(C(=O)c2c(Cl)cc(N4CC5(C4)CN(C4COC4)C5)cc2Cl)C3)cc1N1CCOCC1 [Compound 10-11, 4-[3-[2,6-Dichloro-4-[2-(oxetan-3-yl)-2,6-diazaspiro[3.3]heptan-6-yl]benzoyl]-2,4-dihydro-1,3-benzoxazin-8-yl]-5-fluoro-2-morpholin-4-ylbenzoic acid] | 2.4 |
| COCC1(F)CN(c2cc(Cl)c(C(=O)N3COc4c(cccc4-c4cc(N5C6CCC5COC6)c(C(=O)O)cc4F)C3)c(Cl)c2)C1 [Compound 6-4, 4-[3-[2,6-Dichloro-4-[3-fluoro-3-(methoxymethyl)azetidin-1-yl]benzoyl]-2,4-dihydro-1,3-benzoxazin-8-yl]-5-fluoro-2-(3-oxa-8-azabicyclo[3.2.1]octan-8-yl)benzoic acid] | 2 |
| CN1CC2CCC(C1)N2c1cc(Cl)c(C(=O)N2COc3c(cccc3-c3cc(N4C5CCC4COC5)c(C(=O)O)cc3F)C2)c(Cl)c1 [Compound 9-8, 4-[3-[2,6-Dichloro-4-(3-methyl-3,8-diazabicyclo[3.2.1]octan-8-yl)benzoyl]-2,4-dihydro-1,3-benzoxazin-8-yl]-5-fluoro-2-(3-oxa-8-azabicyclo[3.2.1]octan-8-yl)benzoic acid] | 3.5 |
| C[C@H]1CN(c2cc(Cl)c(C(=O)N3COc4c(cccc4-c4cc(N5C6CCC5COC6)c(C(=O)O)cc4F)C3)c(Cl)c2)CCN1C [Compound 10-5, 4-[3-[2,6-Dichloro-4-[(3S)-3,4-dimethylpiperazin-1-yl]benzoyl]-2,4-dihydro-1,3-benzoxazin-8-yl]-5-fluoro-2-(3-oxa-8-azabicyclo[3.2.1]octan-8-yl)benzoic acid] | 4.3 |
| Cn1cc(-c2cc(Cl)c(C(=O)N3COc4c(ccnc4-c4ccc(C(=O)O)c(N5CCOCC5)c4)C3)c(Cl)c2)cn1 [Compound 18-12, 4-[3-[2,6-Dichloro-4-(1-methylpyrazol-4-yl)benzoyl]-2,4-dihydropyrido[4,3-e][1,3]oxazin-8-yl]-2-morpholin-4-ylbenzoic acid] | 24 |
| C=Cc1cc(C(=O)N2COc3c(cccc3-c3cc(N4CCOCC4)c(C(=O)O)cc3F)C2)c(Cl)cc1OC [Compound 18-1, 4-[3-(2-Chloro-5-ethenyl-4-methoxybenzoyl)-2,4-dihydro-1,3-benzoxazin-8-yl]-5-fluoro-2-morpholin-4-ylbenzoic acid] | 4.1 |
| O=C(O)c1cc(F)c(-c2cccc3c2OCN(C(=O)c2c(Cl)cc(N4CCN5CCOC[C@@H]5C4)cc2Cl)C3)cc1N1C2CCC1COC2 [Compound 4-13, 4-[3-[4-[(9aS)-3,4,6,7,9,9a-Hexahydro-1H-pyrazino[2,1-c][1,4]oxazin-8-yl]-2,6-dichlorobenzoyl]-2,4-dihydro-1,3-benzoxazin-8-yl]-5-fluoro-2-(3-oxa-8-azabicyclo[3.2.1]octan-8-yl)benzoic acid] | 5.8 |
| CC1(C)COC2(CN(c3cc(Cl)c(C(=O)N4COc5c(cccc5-c5cc(N6C7CCC6COC7)c(C(=O)O)cc5F)C4)c(C#N)c3)C2)OC1 [Compound 19-5, 4-[3-[2-Chloro-6-cyano-4-(7,7-dimethyl-5,9-dioxa-2-azaspiro[3.5]nonan-2-yl)benzoyl]-2,4-dihydro-1,3-benzoxazin-8-yl]-5-fluoro-2-(3-oxa-8-azabicyclo[3.2.1]octan-8-yl)benzoic acid] | 2.7 |
| CO[C@H]1CN(c2cc(-c3cccc4c3OCN(C(=O)c3c(Cl)cc(-c5cnn(C)c5)cc3Cl)C4)c(F)cc2C(=O)O)[C@H]1C [Compound 12-3, 4-[3-[2,6-Dichloro-4-(1-methylpyrazol-4-yl)benzoyl]-2,4-dihydro-1,3-benzoxazin-8-yl]-5-fluoro-2-[(2S,3S)-3-methoxy-2-methylazetidin-1-yl]benzoic acid] | 6 |
| COc1cc2c(c(-c3cc(N4C5CCC4COC5)c(C(=O)O)cc3F)c1)OCN(C(=O)c1c(Cl)cc(N3CC(OC)C3)cc1Cl)C2 [Compound 18-7, 4-[3-[2,6-Dichloro-4-(3-methoxyazetidin-1-yl)benzoyl]-6-methoxy-2,4-dihydro-1,3-benzoxazin-8-yl]-5-fluoro-2-(3-oxa-8-azabicyclo[3.2.1]octan-8-yl)benzoic acid] | 17 |
